Results published in patent US20060223884A1, “Compounds and compositions for use in the prevention and treatment of obesity and related syndromes” (priority 2005, published 2006).
Counter-ions that a name gives are not always drawn.

How the values were obtained:
[1] = Body weight gain and epididymal fat pad in the DIO mouse model, Compound 13e (Example 8); type: in vivo, C57BU6 mice; conditions: 25 or 50 mg/kg twice daily oral gavage, 21 days
Protocol: The objective of this study was to determine the effect of one analog according to the invention, namely Compound 13e, on body weight gain in the Diet-Induced Obesity (DIO) mouse model.
C57BU6 mice were received at 7-8 weeks of age and fed a high fat diet (60% of calories from fat) for 8 weeks. Fasted glycemia and body weight values were used to randomize the mice into control and treatment groups (n=8). The average basal glycemia was between 213 and 215 mg/dL for all groups. The animals were treated twice daily by oral gavage with Compound 13e (25 or 50 mg per kg of body weight), and the control group received vehicle (200 mM bicarbonate buffer/0.1% Tween-20™, pH =9) alone. The animals were treated for 21 days. Body weight of the mice was measured on a frequent basis during the treatment. At the end of the study, the epididymal fat pads were isolated and weighed. Data are expressed as mean±SEM of body weight and mean±SEM of fat pad weight.

[2] = Body weight of DIO mice, 4-hydroxyisoleucine and Rimonabant alone and in combination (Example 7); type: in vivo, C57BU6 mice; conditions: oral
Protocol: C57BU6 mice were received at 7-8 weeks of age and fed a high fat diet (60% of calories from fat) for 8 weeks. Seven days prior to treatment, animals were randomized based on their body weight and fasted glycemia values into control and treated groups (n=8). The animals were treated by oral gavage twice daily with 4-OH (50 mg/kg of body weight; group 2), once daily in the afternoon with Rimonabant (0.1 mg/kg; group 3), and a combination of the two treatments (4-OH 50 mg/kg twice daily +Rimonabant 0.1 mg/kg once daily; group 4). The control group (group 1) received vehicle alone twice daily. After 3 weeks of treatment (day 22), the doses were increased as follows: 4-OH 100 mg/kg twice daily (group 2), Rimonabant 1 mg/kg once daily (group 3), and the combination (4-OH 100 mg/kg twice daily+Rimonabant 1 mg/kg once daily; group 4). The animals were treated for 1 week with these higher doses. Body weight of the mice was recorded every day for all groups from Day 6 to Day 28.

[3] = Body weight gain in C57BU6 mice shifted to a high fat diet, analogs and isomers, 3 days (Example 9); type: in vivo; conditions: 100 mg/kg twice daily oral gavage; for body weight gain induced by the high fat diet: C57BU6 mice on high fat diet
Protocol: C57BU6 mice were received at 6-7 weeks of age and fed a standard commercial chow for 1 week (acclimation period). The animals were randomized based on their body weight values, into control and treatment groups (n=6). Then, animals were shifted to a high fat diet (60% of calories from fat) and treated twice daily by oral gavage with 4-hydroxyisoleucine (4-OH, compound 14a) or different analogs and isomers of 4-OH at the dose of 100 mg per kg of body weight for 3 days. The control group (Control HFD) received vehicle (water) alone and a group was kept under standard chow (Control Lean). Body weight of the mice was recorded daily. Two different experiments were run and the effect on body weight gain of selected analogs and isomers according to the invention is presented in FIG. 22A (Experiment 1) and FIG. 22B (Experiment 2).

[4] = Body weight of DIO mice, 4-hydroxyisoleucine and metformin alone and in combination (Example 6); type: in vivo, C57BU6 mice; conditions: DIO mice, 21 days
Protocol: C57BU6 mice were received at 7-8 weeks of age and fed a high fat diet (60% of calories from fat) for 8 weeks. Fasted glycemia was checked and animals with readings between 200 and 220 mg/dL were included in the study. The animals were randomized based on their body weights and glycemia values into control and treatment groups (n=8). […] The control group received vehicle (water) alone. The animals were treated for 21 days. Body weight of the mice was measured on the first day of treatment and on days 3, 7, 10, 14, 17, and 21. All data are expressed as mean±SEM.

[5] = cited from earlier work
[6] = Weight gain and epididymal fat of DIO-C57Bl/6 mice, 4-hydroxyisoleucine and Exendin-4 alone or in combination (Example 5); type: in vivo, C57BI/6 mice; conditions: s.c., 21 days
Protocol: (§1) Glycemic response was monitored by an Oral Glucose Tolerance Test (OGTT) performed on days 0, 7, 14, and 21 of treatment.
(§2) A total of 56 animals were used in the study. The animals were distributed into 7 groups (5 treated, 1 normal diet control, and 1 high fat diet control group). Each group was composed of 8 animals. […] For the three weeks of treatment, the test agents were dissolved in sterile saline for injection (USP). 4-Hydroxyisoleucine was kept at 4° C. (administration to groups 3, 4, and 7) while a frozen aliquot of Exendin-4 was thawed each dosing day for administration to groups 5, 6, and 7. Control animals received sterile saline, twice daily (groups 1 and 2). […] Animals from groups 5 and 6 received sterile saline as the AM treatment, while the PM treatment consisted of 0.05 and 0.01 mg/kg of Exendin-4, respectively. For Group 7, the AM treatment consisted of 50 mg/kg 4-OH only, while the PM treatment consisted of 0.01 mg/kg of Exendin-4+50 mg/kg of 4-OH. All groups were treated by subcutaneous injection.

[7] = Oral Glucose Tolerance Test (OGTT) in DIO mice, 4-hydroxyisoleucine and Exendin-4 alone or in combination (Example 5); type: in vivo, C57BI/6 mice; conditions: single agent, 4-OH 50 mg/kg or Exendin-4 0.01 mg/kg, after 7, 14 and 21 days of treatment
Protocol: as §1, §2
On days 0, 7, 14, and 21, animals fasted for approximately 5 hours were challenged with an Oral Glucose Tolerance Test (OGTT) at 5 hours post-AM test agent administration. Whole blood glucose levels were monitored using a hand-held glucometer prior to OGTT and for up to 2 hours post-glucose challenge.

Compound: N[C@H](C(=O)O)[C@@H]1CCCC[C@H]1O [Compound 13e, (S)-2-amino-2-((1S,2R)-2-hydroxycyclohexyl)acetic acid]
- body weight gain compared to vehicle treated mice [1]: reduction in body weight gain
- dose dependence of the effect on body weight gain ([1]; DIO mice): dose-dependent
- epididymal fat pad weight ([1]; DIO mice, grams per 10 grams of body weight): reduction of epididymal fat pad weight

Compound: Cc1c(C(=O)NN2CCCCC2)nn(-c2ccc(Cl)cc2Cl)c1-c1ccc(Cl)cc1 [Rimonabant, 5-(4-Chlorophenyl)-1-(2,4-dichlorophenyl)-4-methyl-N-(piperidin-1-yl)-1H-pyrazole-3-carboxamide, reference compound]
- body weight gain after 21 days (low dosage treatment) ([2]; 4-OH 50 mg/kg twice daily, Rimonabant 0.1 mg/kg once daily, alone or in combination): slight reduction of body weight gain
- body weight after dose increase (day 22 to 28) ([2]; 4-OH 100 mg/kg twice daily, Rimonabant 1 mg/kg once daily, alone or in combination (combination compared to each compound separately)): immediately reduced the body weight

Compound: C[C@H]([C@@H](C)O)[C@@H](N)C(=O)O [compound 14aa, (2R,3S,4R)-4-Hydroxyisoleucine]
- body weight gain induced by the high fat diet [3]: reduced body weight gain induced by the high fat diet

Compound: CC(C)(C)C(O)CC(N)C(=O)O (centres unmarked) [compound 62, 2-amino-4-hydroxy-5,5-dimethyl-hexanoic acid]
- efficacy on body weight gain relative to compound #14a [3]: greater efficacy than the SRS isomer of 4-OH
- body weight gain induced by the high fat diet [3]: reduced body weight gain induced by the high fat diet

Compound: CC1(O)CC(C(=O)O)NCC1O (centres unmarked) [compound 65a, 4-methyl-4,5-dihydroxypipecolic acid]
- efficacy on body weight gain relative to compound #14a [3]: greater efficacy than the SRS isomer of 4-OH
- body weight gain induced by the high fat diet [3]: reduced body weight gain induced by the high fat diet

Compound: O=C(O)[C@@H]1C[C@H](O)CN1 [compound 75, cis-4-hydroxyproline]
- body weight gain induced by the high fat diet [3]: reduced body weight gain induced by the high fat diet

Compound: COC(=O)[C@@H]1C[C@H](O)CN1 [compound 76, cis-4-hydroxyproline methyl ester HCl salt]
- body weight gain induced by the high fat diet [3]: reduced body weight gain induced by the high fat diet

Compound: CC(=O)N[C@@H]1C(=O)O[C@@H](C)[C@@H]1C [compound 104]
- body weight gain induced by the high fat diet [3]: reduced body weight gain induced by the high fat diet

Compound: COC(=O)[C@H]1C[C@@H](O)CN1 [compound 202]
- body weight gain induced by the high fat diet [3]: reduced body weight gain induced by the high fat diet

Compound: CN(C)C(=N)N=C(N)N [metformin]
- body weight as compared to vehicle-treated mice ([4]; 100 mg/kg twice daily oral, only 4-OH significant (p<0.01 4-OH, p=0.27 metformin)): reduction of their body weight
- body weight compared to control DIO mice, given alone ([4]; 4-OH 50 mg/kg or metformin 25 mg/kg twice daily oral): no significant effect on body weight
- blood glucose levels ([5]; by increasing insulin sensitivity (Stumvoll et al. 1995)): lowers blood glucose levels
- body weight ([5]; most studies conducted in patients with type 2 diabetes (Hundal et al. 2003)): reduce body weight
- weight ([5]; obese individuals without diabetes (Glueck et al. 2001)): induced weight loss

Compound: Exendin-4: glucagon-like peptide 1 (GLP-1) receptor agonist
- body weight gain ([6]; 4-OH 50 mg/kg twice daily, Exendin-4 0.01 mg/kg (PM), alone or in combination): decrease in body weight gain
- weight of epididymal fat ([6]; 4-OH 100 mg/kg, Exendin-4 0.01 mg/kg, combination 4-OH 50 mg/kg + Exendin-4 0.01 mg/kg): not effective
- weight of epididymal fat ([6]; Exendin-4 0.05 mg/kg): effective
- glycemic levels following OGTT challenge [7]: effective
